Values of other authors as cited in patent US9187467B2, “2-phenyl benzothiazole linked imidazole compounds as potential anticancer agents and process for the preparation thereof” (Council of Scientific and Industrial Research, priority 2012, dated 2015).

Assays:
Design in all cases: unit not given here
[1] = test system: CCRF-CEM; settings: previous compounds (U.S. Pat. No. 7,384,966); cited from earlier work
[2] = test system: HL-60 (TB); settings: previous compounds (U.S. Pat. No. 7,384,966); cited from earlier work
[3] = test system: K-562; settings: previous compounds (U.S. Pat. No. 7,384,966); cited from earlier work
[4] = test system: MOLT-4; settings: previous compounds (U.S. Pat. No. 7,384,966); cited from earlier work
[5] = test system: A549/ATCC; settings: previous compounds (U.S. Pat. No. 7,384,966); cited from earlier work
[6] = test system: EKVX; settings: previous compounds (U.S. Pat. No. 7,384,966); cited from earlier work
[7] = test system: HOP-62; settings: previous compounds (U.S. Pat. No. 7,384,966); cited from earlier work
[8] = test system: NCI-H23; settings: previous compounds (U.S. Pat. No. 7,384,966); cited from earlier work
[9] = test system: NCI-H522; settings: previous compounds (U.S. Pat. No. 7,384,966); cited from earlier work
[10] = test system: SW-620; settings: previous compounds (U.S. Pat. No. 7,384,966); cited from earlier work
[11] = test system: SF-268; settings: previous compounds (U.S. Pat. No. 7,384,966); cited from earlier work
[12] = test system: SF-295; settings: previous compounds (U.S. Pat. No. 7,384,966); cited from earlier work
[13] = test system: SF-539; settings: previous compounds (U.S. Pat. No. 7,384,966); cited from earlier work
[14] = test system: SNB-19; settings: previous compounds (U.S. Pat. No. 7,384,966); cited from earlier work
[15] = test system: SNB-75; settings: previous compounds (U.S. Pat. No. 7,384,966); cited from earlier work
[16] = test system: U251; settings: previous compounds (U.S. Pat. No. 7,384,966); cited from earlier work
[17] = test system: OVCAR-3; settings: previous compounds (U.S. Pat. No. 7,384,966); cited from earlier work
[18] = test system: OVCAR-8; settings: previous compounds (U.S. Pat. No. 7,384,966); cited from earlier work
[19] = test system: NCI/ADR-RES; settings: listed as head printed RES (second line of NCI/ADR-RES); previous compounds (U.S. Pat. No. 7,384,966); cited from earlier work
[20] = test system: 786-0; settings: previous compounds (U.S. Pat. No. 7,384,966); cited from earlier work
[21] = test system: ACHN; settings: previous compounds (U.S. Pat. No. 7,384,966); cited from earlier work
[22] = test system: CAKI-1; settings: previous compounds (U.S. Pat. No. 7,384,966); cited from earlier work
[23] = test system: SN12C; settings: previous compounds (U.S. Pat. No. 7,384,966); cited from earlier work
[24] = test system: UO-31; settings: previous compounds (U.S. Pat. No. 7,384,966); cited from earlier work
[25] = test system: PC-3; settings: previous compounds (U.S. Pat. No. 7,384,966); cited from earlier work
[26] = test system: DU-145; settings: previous compounds (U.S. Pat. No. 7,384,966); cited from earlier work
[27] = test system: MDA-MB-231/ATCC; settings: previous compounds (U.S. Pat. No. 7,384,966); cited from earlier work
[28] = test system: HS 578T; settings: previous compounds (U.S. Pat. No. 7,384,966); cited from earlier work
[29] = test system: BT-549; settings: previous compounds (U.S. Pat. No. 7,384,966); cited from earlier work
[30] = test system: LOX IMVI; settings: previous compounds (U.S. Pat. No. 7,384,966); cited from earlier work
[31] = test system: MALME-3M; settings: previous compounds (U.S. Pat. No. 7,384,966); cited from earlier work
[32] = test system: M14; settings: previous compounds (U.S. Pat. No. 7,384,966); cited from earlier work
[33] = test system: UACC-257; settings: previous compounds (U.S. Pat. No. 7,384,966); cited from earlier work
[34] = test system: UACC-62; settings: previous compounds (U.S. Pat. No. 7,384,966); cited from earlier work

Measured: Log10GI50

COc1ccc(-c2nc3ccc(F)cc3s2)cc1OC [Compound 3d]
>−4.0: all assays above
